US20250367134A1, “PERIPHERALIZATION OF CENTRALLY-ACTING CANNABINOID-1 RECEPTOR ANTAGONISTS BY NANOPARTICLES FOR THE TREATMENT METABOLIC RELATED CONDITIONS” (Yissum Research Development Company of the Hebrew …, priority 2022, published 2025)
Where a name gives a salt, the structure may show the parent alone.

Experiments:
[1] = system: genes associated with fatty-acid β-oxidation (Cpta1, Acadm, Echs1, Hadh, and Acaa2); test: CB1R antagonism in primary hepatocytes under lipotoxic conditions, qPCR; format: cell-based, mouse; settings: 1 μM, 24 h, 0.5 mM O:P 2:1
Method: Total RNA of mouse livers or primary hepatocytes was extracted using TRIzol (Invitrogen), followed by DNase I treatment (Invitrogen), and then reverse-transcribed using an Iscript cDNA kit (Bio-Rad). Real-time PCR was conducted using iTaq Universal SYBR Green Supermix (Bio-Rad) and the CFX connect ST system (Bio-Rad). The following Mus musculus genes were detected: Cpta1, Acadm, Echs1, Hadh, and Acaa2; all genes were normalized to β-actin.
Primary mouse hepatocytes were isolated by liberase perfusion as previously described. Briefly, the liver of anesthetized mice was first perfused with calcium-free Hanks balanced salt solution supplemented with HEPES and EDTA (HBSS, Biological Industries, Beit HaEmek, Cat #02-018-1A HEPES Cat #03-025-1B), followed by perfused liberase digestion (25 μg/mL liberase in HBSS; Biological Industries, Beit HaEmek, Cat #02-015-1A with 25 mM HEPES). After digestion, the hepatocytes were released by dissociation from the lobes (centrifuged at 50×g for 2 min at 4° C.). The pellet from the first centrifugation of hepatocytes was loaded on a 90% Percoll gradient (Sigma-Aldrich; Cat #GE17-0891-01) and centrifuged at 200×g for 10 min at 4° C. […]

[2] = Blood and liver biochemistry and histopathology in DIO mice; format: in vivo; settings: 1 mg/kg/d ip, 28 days
Method: Serum levels of cholesterol, triglycerides, high-density lipoprotein (HDL), low-density lipoprotein (LDL), and alanine aminotransferase (ALT) were determined by using the Cobas C-111 chemistry analyzer (Roche, Switzerland). Serum insulin and leptin levels were measured by ELISAs (Merck, Cat #EZRMI-13K and #E6082-K, respectively). Fasting blood glucose was measured using a glucometer. Liver tissues were extracted as known, and their triglyceride content was determined using the Cobas C-111 chemistry analyzer (Roche, Switzerland).
Five μm paraffin-embedded liver sections from 7 animals per group were stained with H&E staining. Liver images were captured with a Zeiss AxioCam ICc5 color camera mounted on a Zeiss Axio Scope.A1 light microscope and taken from 10 random 40× fields of each animal. Lipid staining was conducted using an Oil Red O staining kit (Cat #ab150678; Abcam) according to the manufacturer's protocol. Briefly, at a […] optimal cutting temperature (O.C.T) (Cat #4583; SciGen, Inc., Gardena, CA, USA), compound-embedded liver sections were placed in propylene glycerol, followed by an Oil Red O solution and hematoxylin staining. Stained sections were photographed as mentioned above and positive red areas were quantified in a blinded manner using Image J software with a minimum of 10 random liver sections per mouse.

[3] = 3 and 10 mg/kg; cited from earlier work
[4] = Chronic treatment of diet-induced obesity (DIO) mice: body weight, body composition, food intake, urine; format: in vivo; settings: 1 mg/kg/d ip, 28 days
Text: The experimental protocol used was approved by the Institutional Animal Care and Use Committee of the Hebrew University, which is an AAALAC International accredited institute. To generate diet-induced obesity (DIO; body weight>42 g), six-week-old male C57B1/6JHsd mice (Envigo, Israel) were fed either a high-fat diet (HFD; 60% of calories from fat, 20% from protein, and 20% from carbohydrates; Research Diet, D12492), or a standard diet (STD; 14% fat, 24% protein, 62% carbohydrates; NIH-31 rodent diet) for 16 weeks. […] Body-weight and food intake were measured daily. Total body fat and lean masses were determined by EchoMRI100H™ (Echo Medical Systems LLC, Houston, TX, USA). At 24 h, urine was collected one week before euthanasia using mouse metabolic cages (CCS2000 Chiller System, Hatteras Instruments, NC, USA). Mice were euthanized by cervical dislocation under anesthesia, and the kidneys, brain, liver, fat pads, spleen, lungs, and heart were removed and weighed, and samples were either snap-frozen or fixed in buffered 4% formalin. Trunk blood was collected to determine the biochemical parameters.

[5] = 10 mg/kg; cited from earlier work
[6] = Biodistribution of rimonabant in HFD-fed obese mice after chronic 28-day treatment; format: in vivo; settings: 18 hr following the last injection, 1 mg/kg ip, 28 days
Method: The NPs were suspended in 1×PBS (15-450 μg/mL), and the free drug was dissolved in 4% DMSO, 1% Tween 80, and saline (0.1-3.0 mg/mL). The mice were euthanized 1-, 4-, and 24-h post-injection. […] The mice were euthanized 18 h following the last injection. Blood was collected, and mice were perfused with 1×PBS (via the left ventricle until the effluent from the right atrium was clear of blood), and the brain, lungs, liver, kidneys, fat, and spleen were harvested.
Tissues and serum samples were processed as follows: Total proteins were precipitated with ice-cold acetone/Tris buffer (50 mM, pH 8.0). Then, the samples were homogenized in ice-cold methanol/Tris buffer (50 mM, pH 8.0, 1:1) containing AM251 10 μg/mL as an internal standard. […] Rimonabant levels in the samples were determined by liquid chromatography/tandem mass spectrometry (LC-MS/MS).
The analyses were conducted on a TSQ Quantum Access Max triple quadrupole mass spectrometer (Thermo Scientific, San Jose, CA, USA) coupled with an UHPLC system, which included a Dionex Pump and an Accela Autosampler (Thermo Scientific, San Jose, CA, USA). […] Rimonabant was detected in a positive ion mode using electron spray ionization (ESI) and the multiple reaction monitoring (MRM) mode of acquisition. […]

serum protein = settings: cited from earlier work
[7] = Multi-parameter metabolic assessment (indirect calorimetry) in DIO mice; format: in vivo; settings: 1 mg/kg/d ip, 28 days
Method: The metabolic and activity profiles of the mice were assessed using the Promethion High-Definition Behavioral Phenotyping System (Sable Instruments, Inc., Las Vegas, NV, USA). Data acquisition and instrument control were performed using MetaScreen software version 2.2.18.0, and the obtained raw data were processed using ExpeData version 1.8.4, using an analysis script detailing all aspects of the data transformation. Mice with free access to food and water were subjected to a standard 12 h light/12 h dark cycle, which consisted of a 16 h acclimation period, followed by 24 h of sampling. Respiratory gases were measured by using the GA-3 gas analyzer (Sable Systems, Inc., Las Vegas, NV, USA), using a pull-mode, negative-pressure system. Airflow was measured and controlled by FR-8 (Sable Systems, Inc., Las Vegas, NV, USA), with a set flow rate of 2000 mL/min. Water vapor was continuously measured and its dilution effect on O2 and CO2 was mathematically compensated. The effective mass (eff.Mass) was calculated by ANCOVA analysis. The respiratory quotient (RQ) was calculated as the ratio between CO2 produced to O2 consumed, and the total energy expenditure (TEE) was calculated as VO2×(3.815+1.232×RQ), normalized to the effective body mass, and expressed as kcal/h/kg^eff.Mass. Fat oxidation (FO) was calculated as FO=1.69×VO2−1.69×VCO2 and expressed as g/d/kgeff.Mass. Ambulatory activity and position were monitored simultaneously with the collection of the calorimetry data using XYZ beam arrays with a beam spacing of 0.25 cm.

[8] = Glucose tolerance (ipGTT) and insulin sensitivity tests (ipIST) in DIO mice; format: in vivo; settings: 1 mg/kg/d ip, 28 days
Method: Mice that underwent overnight fasting were injected with glucose (1.5 g/kg, ip), followed by a tail blood collection at 0, 15, 30, 45, 60, 90, and 120 minutes. The blood glucose levels were determined using a glucometer. The following day, the mice underwent fasting for 6 h before receiving insulin (0.75 U/kg, ip; Eli Lilly); their blood glucose levels were determined at the same intervals as above. The homeostasis model assessment insulin resistance (HOMA-IR) was calculated as ([μU/mL] X fasting plasma glucose [mmol/L]/22.5). The insulin sensitivity index (ISI) was calculated as 1/(glucose×insulin)×1000, with glucose expressed as mg/dL and insulin as mU/L.

## Cc1c(C(=O)NN2CCCCC2)nn(-c2ccc(Cl)cc2Cl)c1-c1ccc(Cl)cc1 [free rimonabant, N-(piperidin-1-yl)-5-(4-chlorophenyl)-1-(2,4-dichlorophenyl)-4-methyl-1H-pyrazole-3-carboxamide hydrochloride]
[1]
  expression levels of genes associated with fatty oxidation: significantly upregulated
[2]
  HFD-induced fatty liver (liver weight, hepatic triglyceride content, hepatocyte ballooning, fat accumulation, serum ALT levels): completely reversed
  serum leptin levels: significantly reduced
[3]
  despair-like behavior in the Tail Suspension Test: did not induce despair-like behavior
[4]
  body weight (overweightness): significantly reduced
  fat mass (adiposity): significantly reduced
  food intake: without affecting
  lean mass: increased
[5]
  depressive-like symptoms in the Forced Swim Test: did not induce depressive-like symptoms
[6]
  levels of rimonabant in the brain: Comparable low levels
Serum protein
  serum protein binding: > 98%
[7]
  animal's activity profile: without affecting
  fat oxidation (FO): upregulation
  oxygen consumption (VO2): upregulation
  total energy expenditure (TEE): upregulation
[8]
  HOMA-IR: reduced
  hyperinsulinemia: reduced
  insulin sensitivity: improved
  obesity-induced glucose intolerance: reversed
